Experimental data reported in patent US20220370545A1, “INTEGRIN RECEPTOR ALPHA V BETA 3 AND ITS LIGAND INVOLVED IN CHRONIC ITCH” (North Carolina State University, priority 2019, published 2022).

B1: periostin: fasciclin extracellular matrix protein, endogenous ligand of integrin αvβ3; mouse recombinant used (protein)
chain: NSYYDKVLAHSRIRGRDQGPNVCALQQILGTKKKYFSSCKNWYQGAICGKKTTVLYECCPGYMRMEGMKGCPAVMPIDHVYGTLGIVGATTTQHYSDVSKLREEIEGKGSYTYFAPSNEAWENLDSDIRRGLENNVNVELLNALHSHMVNKRMLTKDLKHGMVIPSMYNNLGLFINHYPNGVVTVNCARVIHGNQIATNGVVHVIDRVLTQIGTSIQDFLEAEDDLSSFRAAAITSDLLESLGRDGHFTLFAPTNEAFEKLPRGVLERIMGDKVASEALMKYHILNTLQCSEAITGGAVFETMEGNTIEIGCEGDSISINGIKMVNKKDIVTKNGVIHLIDEVLIPDSAKQVIELAGKQQTTFTDLVAQLGLASSLKPDGEYTLLAPVNNAFSDDTLSMDQRLLKLILQNHILKVKVGLSDLYNGQILETIGGKQLRVFVYRTAICIENSCMVRGSKQGRNGAIHIFREIIQPAEKSLHDKLRQDKRFSIFLSLLEAADLKDLLTQPGDWTLFAPTNDAFKGMTSEERELLIGDKNALQNIILYHLTPGVYIGKGFEPGVTNILKTTQGSKIYLKGVNETLLVNELKSKESDIMTTNGVIHVVDKLLYPADIPVGNDQLLELLNKLIKYIQIKFVRGSTFKEIPMTVYRPAMTKIQIEGDPDFRLIKEGETVTEVIHGEPVIKKYTKIIDGVPVEITEKQTREERIITGPEIKYTRISTGGGETGETLQKFLQKEVSKVTKFIEGGDGHLFEDEEIKRLLQGDTPAKKIPANKRVQGPRRRSREGRSQ

Tests used:
[1] = system: Integrin αvβ3 on DRG Sensory Neurons; experiment: Fura-2 calcium imaging of periostin-induced calcium response in cultured DRG sensory neurons; format: cell-based, mouse; settings: periostin 16 ng/μl
Procedure: DRGs were isolated from mice and dissociated in 1 mL of media containing 2.5 U/mL of dispase (Fisher Scientific, Hampton, New Hampshire, United States of America) and 2.5 mg/mL of collagenase (Fisher Scientific, Hampton, New Hampshire, United States of America). After dissociation, the cells were washed with complete media (DMEM (HiMedia Laboratories, Mumbai, India) with 10% FBS (Atlanta Biologicals, Flowery Branch, Georgia, United States of America) and 1% PenStrep (VWR International, Radnor, Pa., United States of America)) and pelleted at 1000 rpm for 15 minutes. Approximately 30 μL of the cell suspension was plated on 18 mm round glass slides with a coating of laminin (Sigma Aldrich, St. Louis, Miss., United States of America) and poly-L-lysine (Sigma Aldrich, St. Louis, Miss., United States of America) and incubated for 1.5 hours. Afterwards, 1 mL of complete media was added, and the cells were incubated overnight. All incubation steps were done at 37° C. with 5% CO2.
Before imaging, cells were incubated in 350 μL of complete media containing 1 μM Fura-2 AM (Enzo Life Sciences, Farmingdale, New York, United States of America) for 30 min at 37° C. with 5% CO2. During imaging, the cells were perfused with a buffer containing the following: 135 mM sodium chloride, 3.2 mM potassium chloride, 2.5 mM magnesium chloride, 2.8 mM calcium chloride, 667 μM monobasic sodium phosphate, 14.2 mM sodium bicarbonate, and 10.9 mM D-glucose (all from VWR International, Radnor, Pennsylvania, United States of America) with a pH between 7.00 and 7.40. The buffer and the holding plate were kept at 37° C. while imaging. Imaging data was collected on a TE200 inverted microscope using NIS Elements software (Nikon, Melville, New York, United States of America). Cells were exposed to 340 nm and 380 nm wavelengths for 100 ms and the A340/A380 ratio was calculated. Traces were analyzed using Excel and responses greater than 10% of the baseline were counted. Each data point in the scatter plots represented one coverslip.
Calcium Imaging: Calcium imaging will be performed on the DRG neurons as previously described (Pitake et al., 2018). Briefly, DRG neurons will be incubated for longer than 30 min in DMEM containing 1 μM of a fluorescent indicator Fura-2 AM (Enzo Life Sciences, Inc., Farmingdale, N.Y., United States of America). The neurons will be perfused in a standard bath solution containing 140 mM NaCl, 5 mM KCl, 2 mM MgCl2, 2 mM CaCl2, 10 mM Hepes and 10 mM D-glucose at pH 7.4 adjusted with NaOH. A calcium-free bath solution will be prepared by omitting 2 mM CaCl2 from the standard bath solution […] adding 5 mM EGTA. Fura-2 fluorescence excited at 340 and 380 nm and emission will be monitored at 510 nm with a digital CCD camera (Andor Clara DR-4152, Andor Technology Ltd, Belfast, United Kingdom). Data will be obtained by every 100 ms using an imaging software (NIS-Elements AR 4.13.04, Nikon Corporation, Tokyo, Japan) and analyzed by Microsoft Excel (Microsoft Corporation, Redmond, Wash., United States of America). Values of calcium responses will be normalized by dividing measured values (F) with average values of initial 5 frames (F0) of each cell and described as F/F0. In this study, changes in each response to an application with F/F0>0.1 will be regarded as positive. Cells not responding to 100 mM KCl, which is applied at the end of each experiment, will be regarded as non-neuronal cells and excluded from analysis.
Periostin (10 ug/ml) will be used to evoke calcium influx. This response has been optimized. The peptide inhibitors will be tested on DRG neurons to measure calcium influx in response to periostin. Data on calcium imaging will be presented by presenting each mouse±SEM. The IC50 value of the inhibitor will also be determined
Additional inhibitors were studied using the calcium imaging method described in Example 3. Briefly, the Fura2-AM calcium imaging method was performed on live dorsal root ganglia (DRG) neurons (ex vivo). […]

[2] = system: periostin-induced itch behavior in mice; experiment: Scratching behavior after intradermal periostin injection in the dorsal neck of mice; format: in vivo, mouse
Procedure: All behavioral experiments were conducted during the light cycle at ambient temperature (23° C.). Behavioral assessment of scratching behavior was conducted as described previously (Mishra et al., 2011). Briefly, mice were injected intradermal into the nape of the neck with periostin (R&D), histamine, and chloroquine (all Millipore-Sigma) as previously described (Shimada and LaMotte, 2008). Compounds were diluted in PBS and the same was used as a vehicle. […] Scratching behavior was recorded for 30 minutes and data was presented in bouts per 30 minutes for mice. One bout was defined as scratching behavior toward the injection site between lifting the hind leg from the ground and either putting it back on the ground or guarding the paw with the mouth. Injections of periostin, and capsaicin in the mouse cheek itch/pain model were performed as described previously (Shimada and LaMotte, 2008). For eye wipes assay, periostin and capsaicin were dropped on mouse cornea and counted wipes for 1-minute. Injection volume was always 20 μl in mice. For dog's study, periostin (25 μg/25 μl) was injected in the dorsal neck (s.c.) and behavior was recorded and quantified for 30 minutes as “duration of pruritus manifestation” (DPM), as described earlier (Paps et al., 2016). For non-human primate (NHP) studies, periostin (25 μg/100 μl) was injected in the NHP thigh (s.c.) on the lateral side of the upper part of the hind limb; the skin area over the vastus lateralis muscle. The lateral side of the upper part of the hind limb was chosen as an injection site because this location is safe and easy to access when the animal is in a chair. The number of scratches is easily countable in NHP. When different raters separately scored a single tape, the ratings indicated high interrater reliability (coefficient of correlation, r>0.95). This method of itch readout in NHP has been used and accepted (Ko and Naughton, 2000). The behavior was recorded for 30 minutes duration and number of scratches quantified. In NHP, a scratch is defined as one brief (<1 s) episode of scraping contact of the forepaw or hind paw on the skin surface

[3] = system: dogs; experiment: Periostin injection in dogs, pruritus manifestations; format: in vivo, dog; settings: mouse recombinant periostin 25 μg/100 μl intradermally, neck, within 15 minutes

Molecule	periostin-dependent calcium response ([1]; perfusion with 100 nM cilengitide)	periostin-induced itch behavior ([2]; cilengitide 100 nM i.p. 10 minutes prior to periostin i.d. (5 μg/20 μl))	periostin-induced itch behavior ([2]; cilengitide 100 nM i.v. 10 minutes prior to periostin i.d. (5 μg/20 μl))	itch behavior after cilengitide alone ([2]; cilengitide injected alone, no periostin)	comparison of inhibitory effect among routes of injection ([2]; intravenous pre-injection versus i.p. and mix)	periostin-induced itch behavior ([2]; periostin and cilengitide mixed together and injected s.c.)	itch after periostin injection in dogs [3]	DRG sensory neurons with periostin-dependent changes in intracellular calcium [1]	scratching behavior after periostin injection ([2]; single i.d. injection 5 μg/20 μl in dorsal neck, within 15 minutes)
CC(C)[C@H]1C(=O)N[C@@H](CCCN=C(N)N)C(=O)NCC(=O)N[C@@H](CC(=O)O)C(=O)N[C@H](Cc2ccccc2)C(=O)N1C [cilengitide, cyclo RGDf-n(Me)V]	significantly reduced	significantly reduced	significantly reduced	did not induce itch behavior	strongest inhibitory effect	significantly reduced	–	–	–
B1	–	–	–	–	–	–	robust scratching	about 10±2%	robust scratching behavior
